Active and inactive are the calls of the source. The rule behind the calls is not given here.
How the values were obtained:
[1] = Cytotoxicity against mouse HT22 cells assessed as cell viability at 10 uM after 24 hrs by MTT assay relative to control; type: cell-based, HT-22; settings: read-out: Activity
HT-22 [2] = experiment: Neuroprotective activity against glutamate-induced neuronal cell death in mouse HT22 cells assessed as increase in cell viability after 24 hrs by MTT assay relative to control; type: functional, cell-based
HT-22 [3] = experiment: Neuroprotective activity against glutamate-induced neuronal cell death in mouse HT22 cells assessed as increase in cell viability at 5 uM after 24 hrs by MTT assay relative to control; type: functional
HT-22 [4] = experiment: Neuroprotective activity against glutamate-induced neuronal cell death in mouse HT22 cells assessed as increase in cell viability at 10 uM after 24 hrs by MTT assay relative to control; type: functional
HT-22 [5] = experiment: Neuroprotective activity against t-BuOOH-induced neuronal cell death in mouse HT22 cells assessed as increase in cell viability at 1 to 100 uM after 20 hrs by MTT assay relative to control; type: functional, cell-based
HT-22 [6] = experiment: Neuroprotective activity against glutamate-induced neuronal cell death in mouse HT22 cells assessed as increase in cell viability at 1 to 25 uM after 24 hrs by MTT assay relative to control; type: functional, cell-based
[7] = Cytotoxicity against mouse HT22 cells assessed as cell viability at 25 uM after 24 hrs by MTT assay relative to control; type: cell-based, HT-22; settings: read-out: Activity
HT-22 [8] = experiment: Neuroprotective activity against glutamate-induced neuronal cell death in mouse HT22 cells assessed as increase in cell viability at 25 uM after 24 hrs by MTT assay relative to control; type: functional, cell-based
[9] = Cytotoxicity against mouse HT22 cells assessed as cell viability at 1 uM after 24 hrs by MTT assay relative to control; type: cell-based, HT-22; settings: read-out: Activity
HT-22 [10] = experiment: Neuroprotective activity against glutamate-induced neuronal cell death in mouse HT22 cells assessed as increase in cell viability at 10 to 25 uM after 24 hrs by MTT assay relative to control; type: functional, cell-based
HT-22 [11] = experiment: (§1) Cytotoxicity against mouse HT22 cells assessed as cell viability at 1 to 25 uM after 24 hrs by MTT assay relative to control; type: cell-based; settings: ht-22, 24 h, 25 µM
[12] = as §1; type: cell-based, HT-22; settings: HT22 cells, read-out: Activity
[13] = Cytotoxicity against mouse HT22 cells assessed as reduction in cell viability at 10 uM after 24 hrs by MTT assay relative to control; type: cell-based, HT-22; settings: read-out: INH
[14] = Cytotoxicity against mouse HT22 cells assessed as reduction in cell viability at 25 uM after 24 hrs by MTT assay relative to control; type: cell-based, HT-22; settings: read-out: INH

Row | Structure (SMILES) | viability at 24 h, 10 µM [1] | Activity (HT-22 [2]) | Activity (HT-22 [6]) | further results
1 | COc1cc(/C=C/C(=O)CCCCc2ccc(O)c(OC)c2)ccc1O | 66% | Dose-dependent effect |  | Activity (HT-22 [3]): 47%; Activity (HT-22 [4]): 62%; Activity (HT-22 [5]): inactive
2 | COc1cc(CCCCC(=O)/C=C/c2ccc(O)cc2)ccc1O | 67% |  | inactive | 
3 | O=C(/C=C/c1ccc(O)c(O)c1)CCCCc1ccc(O)c(O)c1 |  |  |  | viability at 24 h, 25 µM [7]: 78%; Activity (HT-22 [4]): inactive; Activity (HT-22 [8]): Active; Activity (HT-22 [5]): Active
4 | COc1cc(CCC(O)CCCCc2ccc(O)cc2)ccc1O (centres undefined) | 75% | Dose-dependent effect |  | Activity (HT-22 [8]): Active
5 | COc1cc(CCCCC(=O)CCc2ccc(O)c(OC)c2)ccc1O | 70% | Dose-dependent effect |  | Activity (HT-22 [8]): Active
6 | COc1cc(CCCCC(=O)CCc2ccc(O)cc2)ccc1O | 71% |  | inactive | 
7 | COc1cc(CCCCC(O)CCc2ccc(O)c(OC)c2)ccc1O (centres undefined) | 73% | Dose-dependent effect |  | Activity (HT-22 [8]): Active
8 | COc1cc(/C=C/C(=O)CCCCc2ccc(O)cc2)ccc1O | 68% | Dose-dependent effect |  | 
9 | COc1ccc(CCCCC(=O)CCc2ccc(OC)c(OC)c2)cc1OC |  |  |  | viability at 24 h, 25 µM [7]: 43%; viability at 24 h, 1 µM [9]: 75%; Activity (HT-22 [10]): inactive
10 | O=C(/C=C/c1ccc(O)cc1)CCCCc1ccc(O)cc1 | 43% |  | inactive | viability at 24 h, 25 µM [7]: 25%
11 | COc1cc(CCCCC(O)CCc2ccc(O)cc2)ccc1O (centres undefined) | 74% |  | inactive | 
12 | O=C(/C=C/c1ccc(O)cc1)CC(=O)/C=C/c1ccc(O)cc1 [BISDEMETHOXYCURCUMIN] |  |  |  | Activity (HT-22 [11]): Toxic
13 | COc1cc(CCC(=O)CCCCc2ccc(O)cc2)ccc1O |  | Dose-dependent effect |  | viability at 24 h, up to 25 µM [12]: 37%; Activity (HT-22 [8]): Active
14 | COc1cc(/C=C/C(=O)CC(=O)/C=C/c2ccc(O)c(OC)c2)ccc1O [CURCUMIN] |  |  |  | cytotoxicity at 24 h, 10 µM [13]: 18%; cytotoxicity at 24 h, 25 µM [14]: 36%
15 | COc1cc(/C=C/C(C)=O)ccc1O |  |  | inactive | 
16 | COc1cc(/C=C/C(O)=C/C(=O)/C=C/c2ccc(O)cc2)ccc1O [DEMETHOXYCURCUMIN] |  |  | inactive | Activity (HT-22 [11]): Toxic
17 | CC(=O)/C=C/c1ccc(O)cc1 |  |  | inactive | viability at 24 h, up to 25 µM [12]: 50%
18 | Oc1ccc(CCCCC(O)CCc2ccc(O)cc2)cc1 (racemic) | 43% |  | inactive | viability at 24 h, 25 µM [7]: 25%
19 | O=C(CCCCc1ccc(O)cc1)CCc1ccc(O)cc1 | 43% |  |  | viability at 24 h, 25 µM [7]: 25%
20 | O=C(/C=C/c1ccc(O)c(O)c1)CC(=O)/C=C/c1ccc(O)c(O)c1 [DIDEMETHYLCURCUMIN] |  |  |  | Activity (HT-22 [11]): Toxic

— ChEMBL document CHEMBL3352561, “Synthesis of natural and non-natural curcuminoids and their neuroprotective activity against glutamate-induced oxidative stress in HT-22 cells” (J Nat Prod, 2014)
